Literature values, collected in US9943479B2, “Injectable liquid paracetamol formulation” (GENFARMA LABORATORIO S.L., priority 2006, dated 2018).
In brackets after ≈: the same amount, converted by molar mass. Where two headings read alike, the source gives them in different places.

For `CC(=O)Nc1ccc(O)cc1` [paracetamol, n-acetyl-4-aminophenol], the “solubility in aqueous medium” value (4° C.) is listed as ~8000 µg/mL (≈ 52.9 mM) and the “solubility in aqueous medium” value (20° C.) is listed as ~12000 µg/mL (≈ 79.4 mM).
